# Measurements taken from patent US12371436B2, “Substituted benzodiazoliums as ENaC inhibitors” (ENTERPRISE THERAPEUTICS LIMITED, priority 2016, dated 2025).
# What was measured:
# [1] = Bronchoalveolar lavage (BAL) procedure: compound levels after intratracheal administration; format: in vivo; settings: bronchoalveolar lavage fluid (BAL), other: intratracheal, 0.1 mg/kg, rat, 0.1 mg/mL solution in 5% dextrose, 1 mL/Kg, BAL 6 hours after administration, LC/MS/MS
# Procedure: Example 69—Bronchoalveolar Lavage (BAL) Procedure A 0.1 mg/mL solution of ENaC inhibitor in 5% dextrose was administered intratracheally to a rat weighing 225-250 g. A volume of 1 mL/Kg was used. After 6 hours, lungs were lavaged with 3×4 mL of sterile saline. A 1 mL aliquot was subsequently snap frozen. Lungs were excised, weighed and snap frozen. Compound levels in the BAL and lung tissue were subsequently determined using LC/MS/MS bioanalysis.
# ENaC = target: T1, ENaC (Homo sapiens, UniProt P37088+P51168+P51170); assay: Short circuit current assay to determine ENaC blocker potency in human bronchial epithelial cells; format: cell-based; settings: 50% inhibition of total amiloride-sensitive ISC, apical addition, read-out: Averages.ENaC IC50 (nM) Avg
# T1 construct: host or cells: primary human bronchial epithelial cells (HBECs) differentiated at air-liquid interface
# T1 sequence (P37088 1-669): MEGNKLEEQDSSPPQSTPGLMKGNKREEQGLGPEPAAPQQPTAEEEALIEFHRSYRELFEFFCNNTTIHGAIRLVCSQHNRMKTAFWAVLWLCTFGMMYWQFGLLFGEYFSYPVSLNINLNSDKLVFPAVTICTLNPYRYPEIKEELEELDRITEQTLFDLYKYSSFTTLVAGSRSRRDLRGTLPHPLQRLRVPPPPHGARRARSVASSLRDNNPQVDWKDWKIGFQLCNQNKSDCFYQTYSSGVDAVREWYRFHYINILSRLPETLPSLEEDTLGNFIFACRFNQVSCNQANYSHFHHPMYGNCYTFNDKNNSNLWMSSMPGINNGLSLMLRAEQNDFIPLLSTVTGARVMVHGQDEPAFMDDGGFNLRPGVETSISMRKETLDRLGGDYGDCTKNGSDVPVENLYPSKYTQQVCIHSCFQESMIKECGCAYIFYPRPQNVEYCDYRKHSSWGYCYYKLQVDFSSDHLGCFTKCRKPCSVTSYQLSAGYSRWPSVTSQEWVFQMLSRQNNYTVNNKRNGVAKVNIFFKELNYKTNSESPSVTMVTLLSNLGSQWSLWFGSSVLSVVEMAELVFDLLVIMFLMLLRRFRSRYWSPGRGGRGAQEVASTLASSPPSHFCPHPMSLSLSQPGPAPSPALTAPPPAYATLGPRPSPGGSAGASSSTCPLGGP
# T1 sequence (P51168 1-640): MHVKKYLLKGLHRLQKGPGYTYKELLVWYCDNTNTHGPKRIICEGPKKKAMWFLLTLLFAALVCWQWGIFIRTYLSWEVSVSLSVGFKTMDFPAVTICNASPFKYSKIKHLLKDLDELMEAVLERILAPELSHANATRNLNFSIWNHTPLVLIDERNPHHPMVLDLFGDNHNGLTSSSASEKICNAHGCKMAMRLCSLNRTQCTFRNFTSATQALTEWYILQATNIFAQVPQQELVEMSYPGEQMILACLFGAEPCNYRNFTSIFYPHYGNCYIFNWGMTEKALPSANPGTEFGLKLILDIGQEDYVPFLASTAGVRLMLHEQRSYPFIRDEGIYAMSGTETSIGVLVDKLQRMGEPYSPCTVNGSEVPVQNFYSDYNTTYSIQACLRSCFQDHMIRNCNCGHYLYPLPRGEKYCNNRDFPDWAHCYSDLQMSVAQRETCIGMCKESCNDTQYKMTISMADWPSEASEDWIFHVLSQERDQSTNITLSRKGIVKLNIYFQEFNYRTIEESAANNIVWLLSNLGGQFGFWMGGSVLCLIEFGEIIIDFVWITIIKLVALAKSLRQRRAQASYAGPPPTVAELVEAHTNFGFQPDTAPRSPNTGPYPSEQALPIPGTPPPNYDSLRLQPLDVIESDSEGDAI
# T1 sequence (P51170 1-649): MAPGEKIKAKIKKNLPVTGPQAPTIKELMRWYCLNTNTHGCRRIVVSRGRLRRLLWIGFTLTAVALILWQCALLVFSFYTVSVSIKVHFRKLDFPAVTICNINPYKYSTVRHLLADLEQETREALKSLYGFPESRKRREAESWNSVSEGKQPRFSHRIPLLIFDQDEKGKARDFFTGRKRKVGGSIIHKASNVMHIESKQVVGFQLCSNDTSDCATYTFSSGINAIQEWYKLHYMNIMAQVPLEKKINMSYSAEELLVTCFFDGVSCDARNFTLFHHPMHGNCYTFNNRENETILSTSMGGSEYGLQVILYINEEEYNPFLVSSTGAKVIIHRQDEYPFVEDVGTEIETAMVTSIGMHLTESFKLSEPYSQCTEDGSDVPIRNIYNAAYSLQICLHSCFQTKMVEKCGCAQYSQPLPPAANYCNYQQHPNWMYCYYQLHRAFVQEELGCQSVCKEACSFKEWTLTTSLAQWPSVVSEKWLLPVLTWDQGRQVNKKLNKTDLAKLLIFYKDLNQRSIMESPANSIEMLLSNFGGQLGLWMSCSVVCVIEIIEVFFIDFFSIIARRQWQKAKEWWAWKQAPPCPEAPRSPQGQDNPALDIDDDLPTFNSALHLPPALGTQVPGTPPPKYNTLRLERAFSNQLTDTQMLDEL
# Procedure, shortened: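 Primary human bronchial epithelial cells at air-liquid interface (days 14–21) were voltage-clamped at 0 mV in Ussing chambers (Ringer, pH 7.4, 37° C.). Compounds were added apically as cumulative concentrations, then 10 μM amiloride. IC50 was taken as 50% inhibition of amiloride-sensitive ISC.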
SMILES,concentration at 6 h [1] [ng/mL],IC50 (ENaC) [nM]
"CCn1c(CNC(=O)c2nc3cc[nH]c3nc2N)[n+](CC)c2ccc(C(=O)N3CC[C@H](N(C[C@H](O)[C@@H](O)[C@H](O)[C@H](O)CO)C[C@H](O)[C@@H](O)[C@H](O)[C@H](O)CO)C3)cc21 [Example 54, 2-[({3-amino-5H-pyrrolo[2,3-b]pyrazin-2-yl}formamido)methyl]-6-[(3S)-3-{bis[(2S,3R,4R,5R)-2,3,4,5,6-pentahydroxyhexyl]amino}pyrrolidine-1-carbonyl]-1,3-diethyl-1H-1,3-benzodiazol-3-ium]",139,49
"CCn1c(CNC(=O)c2nc3cc[nH]c3nc2N)[n+](CC)c2ccc(C(=O)N[C@H]3CC[C@@H](N(C[C@H](O)[C@@H](O)[C@H](O)[C@H](O)CO)C[C@H](O)[C@@H](O)[C@H](O)[C@H](O)CO)CC3)cc21 [Example 56, 2-[({3-amino-5H-pyrrolo[2,3-b]pyrazin-2-yl}formamido)methyl]-1,3-diethyl-6-{[(1s,4s)-4-{bis[(2S,3R,4R,5R)-2,3,4,5,6-pentahydroxyhexyl]amino}cyclohexyl]carbamoyl}-1H-1,3-benzodiazol-3-ium]",283,15
